Key:
CYP3A4/5 = test: Antibody studies: inhibition of nemorubicin metabolism by human liver microsomes; format: in vitro ADME; details: nemorubicin 20 μM, NADPH 0.5 mM, 10 min at 37° C.
Method: Human liver microsomes were preincubated at 25° C. for 5 min. with and without a monoclonal antibody anti-CYP3A4/5 (MAB-3A4 Genetest) in Tris 0.3M (pH 7.4) before adding nemorubicin (20 μM and NADPH (0.5 mM). After 10 min at 37° C., the amount of nemorubicin metabolites was evaluated by a HPLC system.
(§1) High-performance liqid chromatographic (HPLC) system consisted of a Waters Model 510 isocratic pump equipped with autosampler. Detection was performed by a Perkin Elmer fluorescence spectrofotometer LS-5 set at 479 and 552 nm excitation and emission wavelength, respectively. Detector was connected to a Shimadzu C-R3A integrator. The cromatographic separation was performed on a Waters Simmetry C8 reverse phase column. The mobile phase was 10 mM KH2P4/Methanol/CH3CN (45:30:25). The flow rate was 1.5 ml/min. Standard curves of fluorescence versus drug concentration for nemorubicin and metabolites were used to calculate drug concentration in the samples.

CYP3A4 = target: T1, CYP3A4 (Homo sapiens, UniProt P08684); test: Metabolic potential of microsomes from cells expressing single human CYP 450 isoenzymes; format: in vitro ADME; details: 50 pmol CYP/ml, nemorubicin 20 μM, NADPH 0.5 mM, 37° C., 20 min; CYP3A4, CYP3A5, CYP1A2, CYP2E1, CYP2D61, CYP2C91, CYP2C8
T1 construct: expressed in transfected cells
Method: Microsomes were obtained from cell cultures overexpressing CYP3A4, CYP3A5, CYP1A2, CYP2E1, CYP2D61, CYP2C91 and CYP2C8. Microsomes (50 pmol CYP/ml) were incubated with nemomubicin (20 μM) and NADPH (0.5 mM) in 0.3M Tris (pH 7.4) at 37° C. for 20 min. Nemorubicin metabolism was quantified by HPLC method.
as §1

T1 sequence (P08684 whole entry): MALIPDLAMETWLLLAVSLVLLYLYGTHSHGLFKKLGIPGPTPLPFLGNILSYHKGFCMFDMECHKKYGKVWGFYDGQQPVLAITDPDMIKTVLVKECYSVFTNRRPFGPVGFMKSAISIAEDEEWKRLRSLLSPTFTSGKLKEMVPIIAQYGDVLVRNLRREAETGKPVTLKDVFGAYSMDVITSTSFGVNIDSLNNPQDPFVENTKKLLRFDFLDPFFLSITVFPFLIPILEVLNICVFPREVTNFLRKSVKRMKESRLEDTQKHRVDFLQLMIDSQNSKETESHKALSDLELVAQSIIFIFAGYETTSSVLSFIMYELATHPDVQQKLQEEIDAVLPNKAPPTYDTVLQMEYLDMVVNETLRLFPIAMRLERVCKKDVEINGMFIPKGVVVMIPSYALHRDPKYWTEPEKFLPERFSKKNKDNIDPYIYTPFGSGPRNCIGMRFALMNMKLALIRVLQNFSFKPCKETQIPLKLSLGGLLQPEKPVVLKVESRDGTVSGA

## COc1cccc2c1C(=O)c1c(O)c3c(c(O)c1C2=O)C[C@@](O)(C(=O)CO)C[C@@H]3O[C@H]1C[C@H](N2CCO[C@H](OC)C2)[C@H](O)[C@H](C)O1 [nemorubicin]
CYP3A4/5
  isoenzyme responsible for nemorubicin metabolism (antibody inhibition): only the CYP3A4 isoenzyme is responsible for the metabolism of nemorubicin
CYP3A4
  metabolism of nemorubicin by microsomes overexpressing single CYP isoenzymes: Only microsomes from CYP3A4-overexpressing cells were able to metabolize nemorubicin
